For 14 compounds, EC50 results are on record in BindingDB's records for doi:10.1021/jm00020a029 (Merck Research Laboratories, 1995).

Experiment [1] in a line: Evaluated for the activity of Radio-ligand Peptides upon the activation of human thrombin receptor measured by platelet aggregation.
Experiment [2] in a line: Evaluated for the activation of human thrombin receptor measured by platelet aggregation.
Experiment [3] deals with T1, Proteinase-activated receptor 1 (Homo sapiens, UniProt P25116).
T1 sequence (P25116 whole entry): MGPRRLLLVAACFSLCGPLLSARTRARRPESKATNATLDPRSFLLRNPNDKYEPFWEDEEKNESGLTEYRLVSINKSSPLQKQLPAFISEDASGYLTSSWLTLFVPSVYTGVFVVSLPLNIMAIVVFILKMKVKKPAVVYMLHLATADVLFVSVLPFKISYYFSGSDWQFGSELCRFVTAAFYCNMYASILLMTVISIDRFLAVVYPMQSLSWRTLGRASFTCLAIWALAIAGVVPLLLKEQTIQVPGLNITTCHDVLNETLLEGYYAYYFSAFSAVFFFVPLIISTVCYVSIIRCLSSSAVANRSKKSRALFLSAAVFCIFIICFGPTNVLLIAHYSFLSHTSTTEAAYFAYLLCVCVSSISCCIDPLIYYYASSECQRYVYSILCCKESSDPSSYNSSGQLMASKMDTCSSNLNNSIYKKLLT
As to the kind of experiment: Evaluated for the activation of human thrombin receptor measured by platelet aggregation.

*1 amine or outer side, *2 acyl side, *3 side chain or, on linkers, in order; H or OH if unused. Where a SMILES comes first, the peptide text is derived from it. [ ]: non-standard residue; d: D form. ξ: configuration not given here. Phe(3,4-Cl2) = N[C@@H](Cc1ccc(Cl)c(Cl)c1)C(=O)O; X1 = COc1c(I)cc(C[C@H](N[*:1])C(=O)[*:2])cc1I; ξTyr(3,5-I2) = NC(Cc1cc(I)c(O)c(I)c1)C(=O)O; Tyr(3-I) = N[C@@H](Cc1ccc(O)c(I)c1)C(=O)O; Phe(4-F) = N[C@@H](Cc1ccc(F)cc1)C(=O)O; 2Nal = N[C@@H](Cc1ccc2ccccc2c1)C(=O)O; hArg = N=C(N)NCCCC[C@H](N)C(=O)O; Cha = N[C@@H](CC1CCCCC1)C(=O)O; NMeA = CN[C@@H](C)C(=O)O

Usually EC50 stands for the concentration giving half of the maximal effect. Low readings indicate greater potency, high ones weaker potency.

Compound `C[C@H](N)C(=O)N[C@@H](Cc1ccc(F)cc1)C(=O)N[C@@H](CCCNC(=N)N)C(=O)N[C@@H](CC1CCCCC1)C(=O)N[C@@H](CCCCNC(=N)N)C(=O)NC(Cc1cc(I)c(O)c(I)c1)C(N)=O` (stereo partly drawn) [(S)-2-((S)-2-{(S)-2-[(S)-2-((S)-2-Amino-propionylamino)-3-(4-fluoro-phenyl)-propionylamino]-5-guanidino-pentanoylamino}-3-cyclohexyl-propionylamino)-6-guanidino-hexanoic acid [1-carbamoyl-2-(4-hydroxy-3,5-diiodo-phenyl)-ethyl]-amide] (H-A[Phe(4-F)]R[Cha][hArg][ξTyr(3,5-I2)]-NH2) had an EC50 in experiment [1] of 0.15 µM.
With `CC(C)C[C@H](NC(=O)[C@H](Cc1ccc(Cl)c(Cl)c1)NC(=O)[C@H](C)N)C(=O)N[C@@H](CC1CCCCC1)C(=O)N[C@@H](CCCNC(=N)N)C(N)=O` [(S)-2-[(S)-2-((S)-2-Amino-propionylamino)-3-(3,4-dichloro-phenyl)-propionylamino]-4-methyl-pentanoic acid [(S)-1-((S)-1-carbamoyl-4-guanidino-butylcarbamoyl)-2-cyclohexyl-ethyl]-amide] (H-A[Phe(3,4-Cl2)]L[Cha]R-NH2), the EC50 was 0.3 µM in experiment [1] and 0.27 µM in experiment [2].
The compound `C[C@H](N)C(=O)N[C@@H](Cc1ccc(F)cc1)C(=O)N[C@@H](CCCNC(=N)N)C(=O)N[C@@H](CC1CCCCC1)C(=O)N[C@@H](CCCCNC(=N)N)C(=O)N[C@@H](Cc1ccc(O)cc1)C(N)=O` [(S)-2-((S)-2-{(S)-2-[(S)-2-((S)-2-Amino-propionylamino)-3-(4-fluoro-phenyl)-propionylamino]-5-guanidino-pentanoylamino}-3-cyclohexyl-propionylamino)-6-guanidino-hexanoic acid [1-carbamoyl-2-(4-hydroxy-phenyl)-ethyl]-amide] (H-A[Phe(4-F)]R[Cha][hArg]Y-NH2) registered an EC50 in experiment [3] of 0.16 µM.
`C[C@H](N)C(=O)N[C@@H](Cc1ccc(F)cc1)C(=O)N[C@@H](CCCN=C(N)N)C(=O)N[C@@H](CC1CCCCC1)C(=O)N[C@@H](CCCCN=C(N)N)C(=O)N[C@@H](Cc1ccc(O)c(I)c1)C(N)=O` [(S)-2-((S)-2-{(S)-2-[(S)-2-((S)-2-Amino-propionylamino)-3-(4-fluoro-phenyl)-propionylamino]-5-guanidino-pentanoylamino}-3-cyclohexyl-propionylamino)-6-guanidino-hexanoic acid [1-carbamoyl-2-(4-hydroxy-3-iodo-phenyl)-ethyl]-amide] (H-A[Phe(4-F)]R[Cha][hArg][Tyr(3-I)]-NH2) yielded an EC50 in experiment [1] of 0.03 µM.
In experiment [2], `CC(C)C[C@H](NC(=O)[C@H](CC(C)C)NC(=O)[C@H](Cc1ccccc1)NC(=O)[C@@H](N)Cc1ccc(O)cc1)C(=O)N[C@@H](CCCNC(=N)N)C(N)=O` [(S)-2-{(S)-2-[(S)-2-Amino-3-(4-hydroxy-phenyl)-propionylamino]-3-phenyl-propionylamino}-4-methyl-pentanoic acid [(S)-1-((S)-1-carbamoyl-4-guanidino-butylcarbamoyl)-3-methyl-butyl]-amide] (H-YFLLR-NH2) returned an EC50 of 400 µM.
The same measure, in the same setting: under `CC(C)C[C@H](NC(=O)[C@H](CC(C)C)NC(=O)[C@H](Cc1ccccc1)NC(=O)[C@@H](N)CO)C(=O)N[C@@H](C)C(N)=O` [(S)-2-[(S)-2-((S)-2-Amino-3-hydroxy-propionylamino)-3-phenyl-propionylamino]-4-methyl-pentanoic acid [(S)-1-((S)-1-carbamoyl-ethylcarbamoyl)-3-methyl-butyl]-amide] (H-SFLLA-NH2) stands 70 µM; under `CC(C)C[C@H](NC(=O)[C@H](CC(C)C)NC(=O)[C@H](Cc1ccc2ccccc2c1)NC(=O)[C@H](C)N)C(=O)N[C@@H](CCCNC(=N)N)C(N)=O` [(S)-2-[(S)-2-((S)-2-Amino-propionylamino)-3-naphthalen-2-yl-propionylamino]-4-methyl-pentanoic acid [(S)-1-((S)-1-carbamoyl-4-guanidino-butylcarbamoyl)-3-methyl-butyl]-amide] (H-A[2Nal]LLR-NH2), 19 µM; under `CC(C)C[C@H](NC(=O)[C@H](CC(C)C)NC(=O)[C@H](Cc1ccccc1)NC(=O)[C@H](N)CO)C(=O)N[C@@H](CCCNC(=N)N)C(N)=O` [(S)-2-[(S)-2-((R)-2-Amino-3-hydroxy-propionylamino)-3-phenyl-propionylamino]-4-methyl-pentanoic acid [(S)-1-((S)-1-carbamoyl-4-guanidino-butylcarbamoyl)-3-methyl-butyl]-amide], 800 µM.
Same read-out and setting: the figure for `CC(C)C[C@H](NC(=O)[C@H](CC(C)C)NC(=O)[C@H](CC1CCCCC1)NC(=O)[C@H](C)N)C(=O)N[C@@H](CCCNC(=N)N)C(N)=O` [(S)-2-[(S)-2-((S)-2-Amino-propionylamino)-3-cyclohexyl-propionylamino]-4-methyl-pentanoic acid [(S)-1-((S)-1-carbamoyl-4-guanidino-butylcarbamoyl)-3-methyl-butyl]-amide] (H-A[Cha]LLR-NH2) is 28 µM.
On the same count and under the same terms, under `CC(C)C[C@H](NC(=O)[C@H](Cc1ccccc1)NC(=O)[C@@H](N)CO)C(=O)N[C@@H](C)C(=O)N[C@@H](CCCNC(=N)N)C(N)=O` [(S)-2-[(S)-2-((S)-2-Amino-3-hydroxy-propionylamino)-3-phenyl-propionylamino]-4-methyl-pentanoic acid [(S)-1-((S)-1-carbamoyl-4-guanidino-butylcarbamoyl)-ethyl]-amide] (H-SFLAR-NH2) stands 15 µM.
Regarding `COc1c(I)cc(C[C@H](NC(=O)[C@H](Cc2ccc(Cl)c(Cl)c2)NC(=O)[C@H](C)N)C(=O)N[C@@H](CC2CCCCC2)C(=O)N[C@@H](CCCNC(=N)N)C(N)=O)cc1I` [(S)-2-{(S)-2-[(S)-2-[(S)-2-((S)-2-Amino-propionylamino)-3-(3,4-dichloro-phenyl)-propionylamino]-3-(3,5-diiodo-4-methoxy-phenyl)-propionylamino]-3-cyclohexyl-propionylamino}-5-guanidino-pentanoic acid amide] (H-A[Phe(3,4-Cl2)][X1][Cha]R-NH2), the EC50 in experiment [1] came to 1.5 µM; in experiment [2], 0.01 µM.
The compound `CC(C)C[C@H](NC(=O)[C@H](CC(C)C)NC(=O)[C@@H](Cc1ccccc1)NC(=O)[C@@H](N)CO)C(=O)N[C@@H](CCCNC(=N)N)C(N)=O` [(S)-2-[(R)-2-((S)-2-Amino-3-hydroxy-propionylamino)-3-phenyl-propionylamino]-4-methyl-pentanoic acid [(S)-1-((S)-1-carbamoyl-4-guanidino-butylcarbamoyl)-3-methyl-butyl]-amide] registered an EC50 in experiment [2] greater than 800 µM.
Still for that read-out and setting: under `CN[C@@H](C)C(=O)N[C@@H](Cc1ccccc1)C(=O)N[C@@H](CC(C)C)C(=O)N[C@@H](CC(C)C)C(=O)N[C@@H](CCCNC(=N)N)C(N)=O` [(S)-4-Methyl-2-[(S)-2-((S)-2-methylamino-propionylamino)-3-phenyl-propionylamino]-pentanoic acid [(S)-1-((S)-1-carbamoyl-4-guanidino-butylcarbamoyl)-3-methyl-butyl]-amide] (H-[NMeA]FLLR-NH2) stands 600 µM; under `CC(C)C[C@H](NC(=O)[C@H](CC(C)C)NC(=O)[C@@H](N)Cc1ccccc1)C(=O)N[C@@H](CCCNC(=N)N)C(N)=O` [(S)-2-((S)-2-Amino-3-phenyl-propionylamino)-4-methyl-pentanoic acid [(S)-1-((S)-1-carbamoyl-4-guanidino-butylcarbamoyl)-3-methyl-butyl]-amide] (H-FLLR-NH2), greater than 800 µM.
